Assay results from patent US9227971B2, “Pyrazolo[1,5-a]pyrimidine compounds as mTOR inhibitors” (Merck Sharp & Dohme Corp., priority 2010, dated 2016).

The compounds below were run on phosphorylated AKT Ser473 (pAKT S473), mTORC2 activity, PC3 cells (assay: mTOR target engagement assay, immunofluorescent cell-based, pAKT S473 readout (mTORC2 activity)). Settings: Homo sapiens, PC-3, PC3 cells.
Experimental: The target engagement of mTOR kinase inhibitors was evaluated using an immunofluorescent cell-based assay. In this assay, inhibition of mTORC1 activity was measured by the reduction in the level of phosphorylated 4E-BP1^[…] (p4E-BP1 Thr37/46), and inhibition of mTORC2 activity was measured by the reduction of phosphorylated AKT^Ser473 (pAKT S473).
PC3 cells (prostate tumor cell-line that contains a mutation in the tumor suppressor PTEN, that promotes the phosphorylation and activation of AKT and 4E-BP1) were used in the immunofluorescence assay. […] PC3 cells were then treated with 40 μl of the serially diluted test compounds (in 5% fetal bovine serum, F12 medium containing 0.25% DMSO) for ninety minutes at 37° C. The test compound solution was removed, and the plates were washed gently two times with 25 μl phosphate buffered saline (PBS). […] 5% Goat serum in PBS/0.3% Triton was used to block non-specific binding (60 minutes).
The primary antibodies targeting pAKT S473 and p4E-BP1 Thr37/46 were diluted into PBS/0.3% Triton and incubated with the cells overnight at 4° C. […] Plates were washed three times with PBS/0.1% Tween 20 before adding the secondary antibody at a 1:200 dilution.
Finally, the plates were washed three times with PBS/0.1% Tween 20 and the fluorescent intensity was read using an Analyst HT from Molecular Devices.

Q: How did the IC50 turn out when `CC(=O)c1c(N2CC3CCC2CN3C(=O)c2nnc[nH]2)nc2c(-c3ccc(-c4ccccc4)nc3)cnn2c1N` (stereo not drawn) [Compound 8.3, 1-(5-(5-(4H-1,2,4-triazole-3-carbonyl)-2,5-diazabicyclo[2.2.2]octan-2-yl)-7-amino-3-(6-phenylpyridin-3-yl)pyrazolo[1,5-a]pyrimidin-6-yl)ethanone] was run?
A: 100 to 1000 nM

Q: How did the IC50 turn out when `CC(=O)c1c([C@@H]2C[C@H]3CC[C@@H](C2)N3C(=O)c2nnc[nH]2)nc2c(-c3cnc(C(N)=O)nc3)cnn2c1N` [Compound 8.97, 5-(5-((1R,3s,5S)-8-(4H-1,2,4-triazole-3-carbonyl)-8-azabicyclo[3.2.1]octan-3-yl)-6-acetyl-7-aminopyrazolo[1,5-a]pyrimidin-3-yl)pyrimidine-2-carboxamide] was run?
A: 1000 to 10000 nM

Q: `Nc1ncc(-c2cnn3c(N)cc([C@@H]4C[C@H]5CC[C@@H](C4)N5C(=O)c4nnc[nH]4)nc23)cn1` [Compound 8.88, ((1R,3s,5S)-3-(7-amino-3-(2-aminopyrimidin-5-yl)pyrazolo[1,5-a]pyrimidin-5-yl)-8-azabicyclo[3.2.1]octan-8-yl)(4H-1,2,4-triazol-3-yl)methanone] was tested. Which IC50 did it give?
A: > 10000 nM

Q: With `CC(=O)c1c([C@H]2CC3CC[C@H](C2)N3C(=O)c2nnc[nH]2)nc2c(-c3cnc4c(c3)CCC4O)cnn2c1N` (stereo partly drawn) [Compound 7.60, 1-(5-((1R,3s,5S)-8-(4H-1,2,4-triazole-3-carbonyl)-8-azabicyclo[3.2.1]octan-3-yl)-7-amino-3-(7-hydroxy-6,7-dihydro-5H-cyclopenta[b]pyridin-3-yl)pyrazolo[1,5-a]pyrimidin-6-yl)ethanone] as the compound, how does the IC50 read?
A: 100 to 1000 nM

Q: For `CS(=O)(=O)c1c([C@@H]2C[C@H]3CC[C@@H](C2)N3CC(N)=O)nc2c(-c3ccc(-c4ccccc4)nc3)cnn2c1N` [Compound 8.92, 2-((1R,3s,5S)-3-(7-amino-6-(methylsulfonyl)-3-(6-phenylpyridin-3-yl)pyrazolo[1,5-a]pyrimidin-5-yl)-8-azabicyclo[3.2.1]octan-8-yl)acetamide], which IC50 is on record?
A: 1000 to 10000 nM

Same assay, conditions: Homo sapiens, PC-3, PC3 cells, compound treatment ninety minutes at 37° C.

Q: With `CC(=O)c1c([C@@H]2C[C@H]3CC[C@@H](C2)N3C(=O)c2ccn[nH]2)nc2c(-c3ccc(-c4ccc(F)cc4)nc3)cnn2c1N` [Compound 1.1.157, 1-(5-((1R,3s,5S)-8-(1H-pyrazole-5-carbonyl)-8-azabicyclo[3.2.1]octan-3-yl)-7-amino-3-(6-(4-fluorophenyl)pyridin-3-yl)pyrazolo[1,5-a]pyrimidin-6-yl)ethanone] as the compound, how does the IC50 read?
A: 1 to 100 nM

Q: With `Cc1ccc(-c2cnn3c(N)c(C4CC4)c([C@@H]4C[C@H]5CC[C@@H](C4)N5C(=O)c4nnc[nH]4)nc23)cn1` [Compound 4.16, ((1R,3s,5S)-3-(7-amino-6-cyclopropyl-3-(6-methylpyridin-3-yl)pyrazolo[1,5-a]pyrimidin-5-yl)-8-azabicyclo[3.2.1]octan-8-yl)(4H-1,2,4-triazol-3-yl)methanone] as the compound, how does the IC50 read?
A: 100 to 1000 nM

Q: With `CC(=O)c1c([C@@H]2C[C@H]3CC[C@@H](C2)N3C(=O)c2cnn[nH]2)nc2c(-c3ccc(C4(O)CCC4)nc3)cnn2c1N` [Compound 7.19, 1-(5-((1R,3s,5S)-8-(1H-1,2,3-triazole-5-carbonyl)-8-azabicyclo[3.2.1]octan-3-yl)-7-amino-3-(6-(1-hydroxycyclobutyl)pyridin-3-yl)pyrazolo[1,5-a]pyrimidin-6-yl)ethanone] as the compound, how does the IC50 read?
A: 100 to 1000 nM

Q: With `CC(=O)c1c([C@@H]2C[C@H]3CC[C@@H](C2)N3C(=O)[C@@H](C)O)nc2c(-c3ccc(-c4nccs4)nc3)cnn2c1N` [Compound 1.1.34, (R)-1-((1R,3S,5S)-3-(6-acetyl-7-amino-3-(6-(thiazol-2-yl)pyridin-3-yl)pyrazolo[1,5-a]pyrimidin-5-yl)-8-azabicyclo[3.2.1]octan-8-yl)-2-hydroxypropan-1-one] as the compound, how does the IC50 read?
A: 100 to 1000 nM

Q: For `Cn1cnc(-c2ccc(-c3cnn4c(N)c(C5CC5)c([C@@H]5C[C@H]6CC[C@@H](C5)N6C(=O)c5nnc[nH]5)nc34)cn2)c1` [Compound 4.23, ((1R,3a,5S)-3-(7-amino-6-cyclopropyl-3-(6-(1-methyl-1H-imidazol-4-yl)pyridin-3-yl)pyrazolo[1,5-a]pyrimidin-5-yl)-8-azabicyclo[3.2.1]octan-8-yl)(4H-1,2,4-triazol-3-yl)methanone], which IC50 is on record?
A: 1000 to 10000 nM

Q: For `CC(=O)c1c([C@@H]2C[C@H]3CC[C@@H](C2)N3C(=O)[C@@H](C)O)nc2c(-c3ccc(-c4ccc(F)cc4)nc3)cnn2c1N` [Compound 1.1.158, (R)-1-((1R,3S,5S)-3-(6-acetyl-7-amino-3-(6-(4-fluorophenyl)pyridin-3-yl)pyrazolo[1,5-a]pyrimidin-5-yl)-8-azabicyclo[3.2.1]octan-8-yl)-2-hydroxypropan-1-one], which IC50 is on record?
A: 100 to 1000 nM

Q: With `CC(=O)c1c([C@@H]2C[C@H]3CC[C@@H](C2)N3C(=O)C(C)(C)O)nc2c(-c3ccc(-c4ccccc4)nc3)cnn2c1N` [Compound 1.1.6, 1-((1R,3s,5S)-3-(6-acetyl-7-amino-3-(6-phenylpyridin-3-yl)pyrazolo[1,5-a]pyrimidin-5-yl)-8-azabicyclo[3.2.1]octan-8-yl)-2-hydroxy-2-methylpropan-1-one] as the compound, how does the IC50 read?
A: 100 to 1000 nM

Q: How did the IC50 turn out when `CC(=O)c1c([C@@H]2C[C@H]3CC[C@@H](C2)N3C(=O)[C@H](O)CO)nc2c(-c3ccc(-c4ccccc4)nc3)cnn2c1N` [Compound 1.1.3, (R)-1-((1R,3S,5S)-3-(6-acetyl-7-amino-3-(6-phenylpyridin-3-yl)pyrazolo[1,5-a]pyrimidin-5-yl)-8-azabicyclo[3.2.1]octan-8-yl)-2,3-dihydroxypropan-1-one] was run?
A: 100 to 1000 nM

Same assay, conditions: Homo sapiens, PC-3, Table 3-1; PC3 cells

Q: `C[C@@H](O)C(=O)N1[C@@H]2CC[C@H]1C[C@H](c1nc3c(-c4ccc(-c5ccc(F)cc5)nc4)cnn3c(N)c1S(C)(=O)=O)C2` [Compound 3.122, (R)-1-((1R,3S,5S)-3-(7-amino-3-(6-(4-fluorophenyl)pyridin-3-yl)-6-(methylsulfonyl)pyrazolo[1,5-a]pyrimidin-5-yl)-8-azabicyclo[3.2.1]octan-8-yl)-2-hydroxypropan-1-one] was tested. Which IC50 did it give?
A: 100 to 1000 nM

Q: With `CS(=O)(=O)c1c([C@@H]2C[C@H]3CC[C@@H](C2)N3C(=O)c2ccn[nH]2)nc2c(-c3ccc(-c4ccc(F)cc4)nc3)cnn2c1N` [Compound 3.121, ((1R,3s,5S)-3-(7-amino-3-(6-(4-fluorophenyl)pyridin-3-yl)-6-(methylsulfonyl)pyrazolo[1,5-a]pyrimidin-5-yl)-8-azabicyclo[3.2.1]octan-8-yl)(1H-pyrazol-5-yl)methanone] as the compound, how does the IC50 read?
A: 1 to 100 nM

Same assay, conditions: Homo sapiens, PC-3, Table 6-1; PC3 cells

Q: With `COCCOCC(=O)N1[C@@H]2CC[C@H]1C[C@H](c1nc3c(-c4ccc(-c5ncc[nH]5)nc4)cnn3c(N)c1C(C)=O)C2` [Compound 6.13, 1-((1R,3s,5S)-3-(3-(6-(1H-imidazol-2-yl)pyridin-3-yl)-6-acetyl-7-aminopyrazolo[1,5-a]pyrimidin-5-yl)-8-azabicyclo[3.2.1]octan-8-yl)-2-(2-methoxyethoxy)ethanone] as the compound, how does the IC50 read?
A: 1 to 100 nM

Q: With `Nc1c(C2CC2)c([C@@H]2C[C@H]3CC[C@@H](C2)N3C(=O)CO)nc2c(-c3cnc(-c4ncc[nH]4)c(F)c3)cnn12` [Compound 6.29, 1-((1R,3s,5S)-3-(7-amino-6-cyclopropyl-3-(5-fluoro-6-(1H-imidazol-2-yl)pyridin-3-yl)pyrazolo[1,5-a]pyrimidin-5-yl)-8-azabicyclo[3.2.1]octan-8-yl)-2-hydroxyethanone] as the compound, how does the IC50 read?
A: 100 to 1000 nM

Q: With `CC(=O)c1c([C@@H]2C[C@H]3CC[C@@H](C2)N3C(=O)[C@H](C)O)nc2c(-c3ccc(-c4ncc[nH]4)nc3)cnn2c1N` [Compound 6.8, (S)-1-((1R,3R,5S)-3-(3-(6-(1H-imidazol-2-yl)pyridin-3-yl)-6-acetyl-7-aminopyrazolo[1,5-a]pyrimidin-5-yl)-8-azabicyclo[3.2.1]octan-8-yl)-2-hydroxypropan-1-one] as the compound, how does the IC50 read?
A: 1 to 100 nM

Q: How did the IC50 turn out when `CC(=O)c1c([C@@H]2C[C@H]3CC[C@@H](C2)N3C(=O)c2cc(N)n[nH]2)nc2c(-c3ccc(-c4ncc[nH]4)nc3)cnn2c1N` [Compound 6.17, 1-(3-(6-(1H-imidazol-2-yl)pyridin-3-yl)-7-amino-5-((1R,3s,5S)-8-(3-amino-1H-pyrazole-5-carbonyl)-8-azabicyclo[3.2.1]octan-3-yl)pyrazolo[1,5-a]pyrimidin-6-yl)ethanone] was run?
A: 1 to 100 nM

Q: For `CC(=O)c1c([C@@H]2C[C@H]3CC[C@@H](C2)N3C(=O)C(C)(C)CO)nc2c(-c3ccc(-c4ncc[nH]4)nc3)cnn2c1N` [Compound 6.45, 1-((1R,3s,5S)-3-(3-(6-(1H-imidazol-2-yl)pyridin-3-yl)-6-acetyl-7-aminopyrazolo[1,5-a]pyrimidin-5-yl)-8-azabicyclo[3.2.1]octan-8-yl)-3-hydroxy-2,2-dimethylpropan-1-one], which IC50 is on record?
A: 100 to 1000 nM

Same assay, conditions: Table 3-1; PC3 cells

Q: `CS(=O)(=O)c1c([C@@H]2C[C@H]3CC[C@@H](C2)N3C(=O)CO)nc2c(-c3ccc(-c4ccc(F)cc4)nc3)cnn2c1N` [Compound 3.118, 1-((1R,3a,5S)-3-(7-amino-3-(6-(4-fluorophenyl)pyridin-3-yl)-6-(methylsulfonyl)pyrazolo[1,5-a]pyrimidin-5-yl)-8-azabicyclo[3.2.1]octan-8-yl)-2-hydroxyethanone] was tested. Which IC50 did it give?
A: 100 to 1000 nM
